Molecules are shown by their SMILES. pIC50: −log10 of the molar value.

For data set [1], the target named is Epidermal growth factor receptor (Homo sapiens, UniProt P00533). Description: Inhibitory activity against EGFR.
For data set [2], the system named is LoVo. As to the kind of experiment: Inhibition of tumor volume in human LoVo cell xenografted in mice at 100 mg/kg, po. The note with it: Mus musculus, read-out: Inhibition. In general terms: In xenograft studies the graft and the host belong to different species.
Data set [3] is described as follows: Percent of unbound ligand in mouse plasma at 5 mg/kg, po and 2 mg/kg, iv. Type of data set: ADME, organism-based.
A short description of data set [4]: Plasma clearance in mouse at 5 mg/kg, po and 2 mg/kg, iv. The format is ADME, organism-based.
The nature of data set [5]: Volume of distribution in mouse at 5 mg/kg, po and 2 mg/kg, iv. The format is ADME, organism-based. The following applies: in vivo, read-out: Vdss.
The nature of data set [6]: Half life in mouse at 5 mg/kg, po and 2 mg/kg, iv. The following applies: in vivo. Type of data set: ADME, organism-based.
Data set [7] can be described thus: Bioavailability in mouse at 5 mg/kg, po and 2 mg/kg, iv. The format is ADME, organism-based. The note with it: in vivo.
Data set [8] in a line: Percent of unbound ligand in rat plasma at 5 mg/kg, po and 2 mg/kg, iv. Type of data set: ADME, organism-based.
The nature of data set [9]: Volume of distribution in rat at 5 mg/kg, po and 2 mg/kg, iv. Type of data set: ADME, organism-based. The note with it: in vivo, read-out: Vdss.
Data set [10] in a line: Plasma clearance in rat at 5 mg/kg, po and 2 mg/kg, iv. Type of data set: ADME, organism-based.
A short description of data set [11]: Half life in rat at 5 mg/kg, po and 2 mg/kg, iv. Type of data set: ADME, organism-based. The following applies: in vivo.
A short description of data set [12]: Bioavailability in rat at 5 mg/kg, po and 2 mg/kg, iv. The format is ADME, organism-based. The note with it: in vivo.

Epidermal growth factor receptor, sequence (P00533 whole entry): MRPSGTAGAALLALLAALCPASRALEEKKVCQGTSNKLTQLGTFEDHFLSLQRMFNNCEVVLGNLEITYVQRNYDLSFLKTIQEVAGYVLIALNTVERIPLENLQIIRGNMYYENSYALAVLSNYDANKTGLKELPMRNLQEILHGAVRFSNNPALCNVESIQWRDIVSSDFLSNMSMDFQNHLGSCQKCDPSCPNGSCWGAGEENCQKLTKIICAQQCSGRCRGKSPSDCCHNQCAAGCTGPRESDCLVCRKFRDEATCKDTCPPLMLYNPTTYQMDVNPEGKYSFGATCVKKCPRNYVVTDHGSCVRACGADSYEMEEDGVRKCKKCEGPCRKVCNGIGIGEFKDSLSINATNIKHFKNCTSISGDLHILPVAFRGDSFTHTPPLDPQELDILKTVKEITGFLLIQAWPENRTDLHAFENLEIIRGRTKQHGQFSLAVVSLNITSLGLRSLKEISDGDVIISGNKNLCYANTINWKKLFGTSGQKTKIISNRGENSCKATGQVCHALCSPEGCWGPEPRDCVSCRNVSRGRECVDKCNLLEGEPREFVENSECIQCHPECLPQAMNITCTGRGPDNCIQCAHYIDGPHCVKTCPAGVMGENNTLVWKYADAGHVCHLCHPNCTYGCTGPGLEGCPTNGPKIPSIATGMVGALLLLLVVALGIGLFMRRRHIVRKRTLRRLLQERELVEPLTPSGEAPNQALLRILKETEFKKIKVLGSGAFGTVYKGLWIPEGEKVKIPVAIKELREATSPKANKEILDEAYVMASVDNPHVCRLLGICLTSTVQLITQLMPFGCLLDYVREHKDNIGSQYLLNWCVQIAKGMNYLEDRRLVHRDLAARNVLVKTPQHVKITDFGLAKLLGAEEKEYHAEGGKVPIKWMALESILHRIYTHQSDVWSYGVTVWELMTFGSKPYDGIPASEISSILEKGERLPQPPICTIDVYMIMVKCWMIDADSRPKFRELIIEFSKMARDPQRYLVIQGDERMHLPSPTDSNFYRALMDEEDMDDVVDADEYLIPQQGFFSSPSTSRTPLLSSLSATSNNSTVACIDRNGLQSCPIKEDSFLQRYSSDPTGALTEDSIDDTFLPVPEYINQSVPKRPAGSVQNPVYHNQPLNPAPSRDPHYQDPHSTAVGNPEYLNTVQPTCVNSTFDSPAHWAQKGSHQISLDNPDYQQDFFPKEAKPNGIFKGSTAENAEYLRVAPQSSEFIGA

For the molecule `COCCOc1cc(OC2CCOCC2)c2c(Nc3ccc(F)c(Cl)c3)ncnc2c1`, in data set [1], the pIC50 (commonly −log10 of the IC50, conventionally taken in molar units) was 6.17.
In data set [1], `COc1cc(OC(C)C)c2c(Nc3ccc(F)c(Cl)c3)ncnc2c1` gave a pIC50 of 5.09.
As to `CN1CCN(CCCOc2cc(OC3CCOCC3)c3c(Nc4ccc(F)c(Cl)c4)ncnc3c2)CC1`, the pIC50 in data set [1] is 7.18.
Same read-out and setting: the same measure for `COc1cc(OC2CCN(S(C)(=O)=O)CC2)c2c(Nc3ccc(F)c(Cl)c3)ncnc2c1`: 5.02.
On the same count and under the same terms, the same measure for `CCN1CCC(Oc2cc(OC)cc3ncnc(Nc4ccc(F)c(Cl)c4)c23)CC1`: > 8.70.
On the same count and under the same terms, next, `COc1cc(OC2CCN(C(C)=O)CC2)c2c(Nc3ccc(F)c(Cl)c3)ncnc2c1`: 6.06; `COc1cc(OC2CCOCC2)c2c(Nc3ccc(F)c(Cl)c3)ncnc2c1`: 5.86.
As for `CCCN1CCC(Oc2cc(OC)cc3ncnc(Nc4ccc(F)c(Cl)c4)c23)CC1`, the negative logarithm of the IC50 (pIC50) in [1] was > 8.70.
Turning to `COc1cc(OC2CCN(C)CC2)c2c(Nc3ccc(F)c(Cl)c3)ncnc2c1`, the inhibition in vivo at 100 mg/kg in [2] amounted to 60%. The same molecule had a negative-log IC50 (pIC50) in data set [1] of 7.68. Moreover, the fraction unbound (commonly free concentration divided by total concentration) in [3] came to 0.0311; in data set [8] it was 0.0251. The clearance was found to be 20 mL/min/kg in [4] and 66 mL/min/kg in data set [10]. The Vd came to 8.2 L/kg in data set [5] and 12.3 L/kg in data set [9]. Moreover, the half-life – broadly, the time needed for the level to fall by half in the phase considered – is 5.2 h in data set [6] and 2.9 h in data set [11]. Besides, the bioavailability was determined as 103% in data set [7] and 63% in [12].
As to `CN1CCC(Oc2cccc3ncnc(Nc4ccc(F)c(Cl)c4)c23)CC1`, in data set [1], the pIC50 is 8.52.
Same read-out and setting: next, `COc1ccc2ncnc(Nc3ccc(F)c(Cl)c3)c2c1OC1CCN(C)CC1`: 6.65; `COc1cc(OC2CCNCC2)c2c(Nc3ccc(F)c(Cl)c3)ncnc2c1`: 8.00.

Source of the values: ChEMBL document CHEMBL1146052, “Inhibitors of epidermal growth factor receptor tyrosine kinase: Novel C-5 substituted anilinoquinazolines designed to target the ribose pocket” (Bioorg Med Chem Lett, 2006).
